In patent US20200339625A1, “NOVEL RADIOMETAL-BINDING COMPOUNDS FOR DIAGNOSIS OR TREATMENT OF PROSTATE SPECIFIC MEMBRANE ANTIGEN-EXPRESSING CANCER” (PROVINCIAL HEALTH SERVICES AUTHORITY, priority 2017, published 2020):

System: mice bearing LNCaP xenografts
Experiment: Biodistribution of 177Lu-labeled compounds
Format: in vivo
Description: 1.17 SPECT/CT Imaging, Biodistribution and Endoradiotherapy Studies
SPECT/CT imaging and biodistribution were performed using NOD-scid IL2Rgammanu^null (NSG) male mice, and the endoradiotherapy study was conducted using NOD.Cg-Rag1^tm1MomII2rg^tm1WjI/SzJ (NRG) male mice. The mice were maintained and the experiments were conducted in according to the guidelines established by the Canadian Council on Animal Care and approved by Animal Ethics Committee of the University of British Columbia. Mice were anesthetized by inhalation with 2% isoflurane in oxygen, and implanted subcutaneously with 1×10^7 LNCaP cells posterior to the left shoulder. Mice were used for studies when the tumor reached 5-8 mm in diameter 5-6 weeks after inoculation.
For biodistribution studies, the mice were injected with ^177Ludabeled PSMA-617 or HTK01169 (2-4 MBq) as described above. At predetermined time points (1, 4, 24, 72, or 120 h post-injection), the mice were euthanized by CO2 inhalation. Blood was withdrawn immediately from the heart, and the organs/tissues of interest were collected. The collected organs/tissues were weighed and counted using an automated gamma counter. For the blocking study, mice were co-injected with ^177Lu-HTK01169 (2-4 MBq) and 50 nmol of the non-radioactive standard, and organs/tissues of interest were collected at 4 h post-injection.

[1] = 4 h post-injection, blocking (co-injection of 50 nmol non-radioactive standard)

`O=C([O-])CN1CCN(CC(=O)[O-])CCN(CC(=O)NCCCC[C@H](NC(=O)[C@H](CCC(=O)O)NC(=O)CCCc2ccc(I)cc2)C(=O)NC[C@H]2CC[C@H](C(=O)N[C@@H](Cc3ccc4ccccc4c3)C(=O)NCCCC[C@H](NC(=O)N[C@@H](CCC(=O)O)C(=O)O)C(=O)O)CC2)CCN(CC(=O)[O-])CC1.[177Lu+3]` [^177Lu-HTK01169] was tested, and the Adrenal glands uptake (1 h post-injection) was 9.94 ± 2.10 % ID/g, the Blood uptake (1 h post-injection) was 16.6 ± 1.85 % ID/g and the Bone uptake (1 h post-injection) was 0.93 ± 0.31 % ID/g. The Brain uptake (1 h post-injection) was 0.18 ± 0.07 % ID/g, the Fat uptake (1 h post-injection) was 3.20 ± 1.03 % ID/g and the Heart uptake (1 h post-injection) was 3.93 ± 0.95 % ID/g. For the same molecule, the Intestine uptake (1 h post-injection) was 1.64 ± 0.20 % ID/g, the Kidneys uptake (1 h post-injection) was 51.1 ± 4.07 % ID/g and the Liver uptake (1 h post-injection) was 2.55 ± 0.45 % ID/g. The Lung uptake (1 h post-injection) was 7.11 ± 0.98 % ID/g, the Muscle uptake (1 h post-injection) was 1.39 ± 0.12 % ID/g and the Pancreas uptake (1 h post-injection) was 1.77 ± 0.24 % ID/g. For the same molecule, the Seminal uptake (1 h post-injection) was 1.02 ± 0.15 % ID/g, the Spleen uptake (1 h post-injection) was 10.6 ± 4.07 % ID/g and the Stomach uptake (1 h post-injection) was 0.50 ± 0.15 % ID/g. It also gave a Testes uptake (1 h post-injection) of 2.14 ± 0.31 % ID/g, a Tumor uptake (1 h post-injection) of 13.4 ± 3.26 % ID/g and a Tumor/blood ratio (1 h post-injection) of 0.81 ± 0.18. It also gave a Tumor/kidney ratio (1 h post-injection) of 0.26 ± 0.05, a Tumor/muscle ratio (1 h post-injection) of 9.76 ± 2.65 and an Adrenal glands uptake (4 h post-injection) of 9.91 ± 2.55 % ID/g. For the same molecule, the Blood uptake (4 h post-injection) was 10.2 ± 1.40 % ID/g, the Bone uptake (4 h post-injection) was 0.79 ± 0.30 % ID/g and the Brain uptake (4 h post-injection) was 0.16 ± 0.01 % ID/g. The Fat uptake (4 h post-injection) was 2.95 ± 0.81 % ID/g, the Heart uptake (4 h post-injection) was 2.50 ± 0.54 % ID/g and the Intestine uptake (4 h post-injection) was 1.25 ± 0.17 % ID/g. It also gave a Kidneys uptake (4 h post-injection) of 85.7 ± 7.11 % ID/g, a Liver uptake (4 h post-injection) of 1.97 ± 0.05 % ID/g and a Lung uptake (4 h post-injection) of 5.92 ± 0.22 % ID/g. It also gave a Muscle uptake (4 h post-injection) of 0.98 ± 0.06 % ID/g, a Pancreas uptake (4 h post-injection) of 1.51 ± 0.28 % ID/g and a Seminal uptake (4 h post-injection) of 1.07 ± 0.62 % ID/g. For the same molecule, the Spleen uptake (4 h post-injection) was 8.05 ± 3.62 % ID/g, the Stomach uptake (4 h post-injection) was 0.57 ± 0.11 % ID/g and the Testes uptake (4 h post-injection) was 1.91 ± 0.63 % ID/g. For the same molecule, the Tumor/blood ratio (4 h post-injection) was 2.71 ± 0.68, the Tumor/kidney ratio (4 h post-injection) was 0.32 ± 0.07 and the Tumor/muscle ratio (4 h post-injection) was 28.0 ± 6.92. It also gave an Adrenal glands uptake [1] of 0.68 ± 0.24 % ID/g, a Blood uptake [1] of 0.96 ± 0.25 % ID/g and a Bone uptake [1] of 0.12 ± 0.04 % ID/g. The Brain uptake [1] was 0.03 ± 0.00 % ID/g, the Fat uptake [1] was 0.25 ± 0.13 % ID/g and the Heart uptake [1] was 0.41 ± 0.07 % ID/g. It also gave an Intestine uptake [1] of 0.25 ± 0.10 % ID/g, a Kidneys uptake [1] of 5.50±1.95 % ID/g and a Liver uptake [1] of 0.51 ± 0.08 % ID/g. For the same molecule, the Lung uptake [1] was 0.89 ± 0.29 % ID/g, the Muscle uptake [1] was 0.12 ± 0.02 % ID/g and the Pancreas uptake [1] was 0.19 ± 0.02 % ID/g. It also gave a Seminal uptake [1] of 0.19 ± 0.13 % ID/g, a Spleen uptake [1] of 0.61 ± 0.17 % ID/g and a Stomach uptake [1] of 0.19 ± 0.10 % ID/g. For the same molecule, the Testes uptake [1] was 0.58 ± 0.14 % ID/g, the Tumor uptake [1] was 1.70±0.28 % ID/g and the Tumor/blood ratio [1] was 1.81 ± 0.31. For the same molecule, the Tumor/kidney ratio [1] was 0.32 ± 0.06, the Tumor/muscle ratio [1] was 13.7 ± 1.47 and the Adrenal glands uptake (24 h post-injection) was 4.53 ± 1.10 % ID/g. The Blood uptake (24 h post-injection) was 2.10 ± 0.41 % ID/g, the Bone uptake (24 h post-injection) was 0.26 ± 0.05 % ID/g and the Brain uptake (24 h post-injection) was 0.06 ± 0.01 % ID/g. The Fat uptake (24 h post-injection) was 2.06 ± 0.71 % ID/g, the Heart uptake (24 h post-injection) was 0.83 ± 0.25 % ID/g and the Intestine uptake (24 h post-injection) was 0.45 ± 0.13 % ID/g. The Kidneys uptake (24 h post-injection) was 125 ± 16.4 % ID/g, the Liver uptake (24 h post-injection) was 1.03 ± 0.22 % ID/g and the Lung uptake (24 h post-injection) was 1.98 ± 0.44 % ID/g. It also gave a Muscle uptake (24 h post-injection) of 0.39 ± 0.07 % ID/g, a Pancreas uptake (24 h post-injection) of 0.59 ± 0.12 % ID/g and a Seminal uptake (24 h post-injection) of 0.36 ± 0.13 % ID/g. For the same molecule, the Spleen uptake (24 h post-injection) was 3.70 ± 1.67 % ID/g, the Stomach uptake (24 h post-injection) was 0.34 ± 0.12 % ID/g and the Testes uptake (24 h post-injection) was 1.19 ± 0.23 % ID/g. The Tumor uptake (24 h post-injection) was 55.9±12.5 % ID/g, the Tumor/blood ratio (24 h post-injection) was 26.7 ± 2.79 and the Tumor/kidney ratio (24 h post-injection) was 0.45 ± 0.13. It also gave a Tumor/muscle ratio (24 h post-injection) of 142 ± 14.4, an Adrenal glands uptake (72 h post-injection) of 1.65 ± 0.46 % ID/g and a Blood uptake (72 h post-injection) of 0.28 ± 0.10 % ID/g. It also gave a Bone uptake (72 h post-injection) of 0.11 ± 0.03 % ID/g, a Brain uptake (72 h post-injection) of 0.03 ± 0.00 % ID/g and a Fat uptake (72 h post-injection) of 1.34 ± 0.72 % ID/g. For the same molecule, the Heart uptake (72 h post-injection) was 0.28 ± 0.04 % ID/g, the Intestine uptake (72 h post-injection) was 0.13 ± 0.06 % ID/g and the Kidneys uptake (72 h post-injection) was 37.8 ± 18.7 % ID/g. It also gave a Liver uptake (72 h post-injection) of 0.46 ± 0.12 % ID/g, a Lung uptake (72 h post-injection) of 0.51 ± 0.17 % ID/g and a Muscle uptake (72 h post-injection) of 0.11 ± 0.02 % ID/g. The Pancreas uptake (72 h post-injection) was 0.15 ± 0.02 % ID/g, the Seminal uptake (72 h post-injection) was 0.12 ± 0.04 % ID/g and the Spleen uptake (72 h post-injection) was 1.13 ± 0.32 % ID/g. The Stomach uptake (72 h post-injection) was 0.17 ± 0.12 % ID/g, the Testes uptake (72 h post-injection) was 0.62 ± 0.11 % ID/g and the Tumor uptake (72 h post-injection) was 53.6 ± 8.06 % ID/g. The Tumor/blood ratio (72 h post-injection) was 204 ± 63.5, the Tumor/kidney ratio (72 h post-injection) was 1.63 ± 0.58 and the Tumor/muscle ratio (72 h post-injection) was 519 ± 91.5. The Adrenal glands uptake (120 h post-injection) was 0.65 ± 0.21 % ID/g, the Blood uptake (120 h post-injection) was 0.06 ± 0.03 % ID/g and the Bone uptake (120 h post-injection) was 0.08 ± 0.01 % ID/g. For the same molecule, the Brain uptake (120 h post-injection) was 0.03 ± 0.00 % ID/g, the Fat uptake (120 h post-injection) was 0.73 ± 0.13 % ID/g and the Heart uptake (120 h post-injection) was 0.16 ± 0.07 % ID/g. For the same molecule, the Intestine uptake (120 h post-injection) was 0.10 ± 0.06 % ID/g, the Kidneys uptake (120 h post-injection) was 8.63 ± 2.51 % ID/g and the Liver uptake (120 h post-injection) was 0.34 ± 0.23 % ID/g. The Lung uptake (120 h post-injection) was 0.17 ± 0.04 % ID/g, the Muscle uptake (120 h post-injection) was 0.04 ± 0.01 % ID/g and the Pancreas uptake (120 h post-injection) was 0.07 ± 0.02 % ID/g. The Seminal uptake (120 h post-injection) was 0.08 ± 0.04 % ID/g, the Spleen uptake (120 h post-injection) was 1.18 ± 0.55 % ID/g and the Stomach uptake (120 h post-injection) was 0.21 ± 0.20 % ID/g. For the same molecule, the Testes uptake (120 h post-injection) was 0.40 ± 0.05 % ID/g, the Tumor uptake (120 h post-injection) was 56.4±13.2 % ID/g and the Tumor/blood ratio (120 h post-injection) was 1146 ± 722. The Tumor/kidney ratio (120 h post-injection) was 7.12 ± 3.11, the Tumor/muscle ratio (120 h post-injection) was 1708 ± 718 and the “fold higher peak tumor uptake than 177Lu-PSMA-617” value (LNCaP tumor xenografts) was 3.7 fold. For the same molecule, the “blood clearance (qualitative)” value (mouse, in vivo) was “relatively slower than ^177Lu-PSMA-617” and the peaked tumor uptake (peak over 1-120 h) was 55.9±12.5 % ID/g.
